Patent US5449674A, “2-,3-,5-, and/or 8-substituted dibenzoxazepine compounds, pharmaceutical compositions and methods for treating pain” (G. D. Searle & Co., priority 1994, dated 1995)
In brackets after ≈: the same amount, converted by molar mass. Counter-ions that a name gives are not always drawn. Like-named read-outs stand apart in the source and are kept apart here.

Experiments:
water solubility = type: physicochemical; conditions: for solubility: water
Method: The title compound was determined to have a high water solubility (>80 mg/mL) by methods known by those of skill in the art.

[1] = test system: phenylbenzoquinone (PBQ)-induced writhing in mice; assay: Writhing Assay (PBQ-induced writhing, analgesic activity in mice); type: in vivo, Charles River male albino mice; conditions: for Writhing assay, number of mice out of nine or ten in which the test compound produced analgesia, I.G. / Writhing assay, number of mice out of nine or ten in which the test compound produced analgesia, S.C.: 30 mg/kg, PBQ i.p. 30 min later; for ED50: Mus musculus
From the text: The Writhing Assay is one of the most widely-used experimental procedures for measuring the analgesic activity of different narcotic and nonnarcotic analgesic agents, and involves the continuous, chemically-induced pain of visceral origin to an animal, such as a mouse or rat. [Gyires et al., Arch. int. Pharmacodyn, 267, 131-140 (1984); C. Vander Wende et al., Fed. Proc., 15, 494 (1956); Koster et al., Fed. Proc., 18, 412 (1959); and Witken et al., J. Pharmacol. exp. Ther., 133, 400-408 (1961).]Chemicals which may be used to induce this pain include phenylbenzoquinone (PBQ) and acetic acid. As a result of the chemical irritation to the animal, a characteristic stretching and writhing of the animal (dorsiflexion of the animal's back, extension of its hindlimbs and the strong contraction of its abdominal musculature) will generally occur. […] Drugs which reduce the number of writhes of the animal appear to restore the normal nociceptive threshold of the animal.
Charles River male albino mice, weighing 20 to 30 grams, were used in this assay.
Thirty minutes after subcutaneous or intragastric administration to ten mice of 30 mg per kilogram of body weight of a compound of the present invention ("test compound"), […] per 10 g of body weight of a 0.025% w/v solution of PBQ was injected intraperitoneally into each mouse. Ten mice which were given saline in place of a test compound of the invention were used as a control group.
Five minutes later, each mouse was individually placed into a glass beaker for observation, and the number of writhes occurring during the following ten-minute period was counted.
A test compound was considered to have produced analgesia in a mouse if, in accordance with the conditions set forth above, and under the test criteria employed for this assay, after the administration of 30 mg per kilogram of body weight of a compound of the present invention to the mouse, the number of writhes elicited by a mouse injected with PBQ was equal to, or less than, one-half the median number of writhes recorded for the saline-treated control group of mice that day, as described by Taber in "Predictive Value of Analgesic Assays in Mice and Rats," Advances in Biochemical Psychopharmacology, 8, 191 (1974).
The results for the particular compounds of the present invention analyzed in this assay, and discussed in the examples identified below which correspond thereto, are presented in Table I hereinbelow as fractions under the heading "WRITHING ASSAY." The fractions indicate the number of mice, out of ten, in which the test compound produced analgesia.
The standard initial screening dose of a test compound employed in this assay was […] for both routes of administration. If this initial screening dose of the test compound produced analgesia in seven of ten mice, then the effect of additional doses of the test compound on the writhing response was evaluated, and then the ED50 dose was generally calculated. (The slopes of the dose-response curves for all test compounds analyzed were compared as described by Tallarida and Murray, Manual of Pharmacologic Calculations, Page 11 (Springer Verlag, New York, 1981)).

[2] = target: T1, prostaglandin E2-induced contractions of segments of guinea pig ileum (Cavia porcellus, UniProt A0A286XHJ6); assay: Prostaglandin (PGE) Antagonism Assay; type: cell-based; conditions: isolated ileum, 37° C., read-out: PGE in guinea pig ileum pA2 (converted)
T1 construct: Segments of ileum about 2 cm long were then cut and mounted in a 10 mL tissue bath; from tissue; host or cells: guinea pig ileum segments
T1 sequence (A0A286XHJ6 1-405): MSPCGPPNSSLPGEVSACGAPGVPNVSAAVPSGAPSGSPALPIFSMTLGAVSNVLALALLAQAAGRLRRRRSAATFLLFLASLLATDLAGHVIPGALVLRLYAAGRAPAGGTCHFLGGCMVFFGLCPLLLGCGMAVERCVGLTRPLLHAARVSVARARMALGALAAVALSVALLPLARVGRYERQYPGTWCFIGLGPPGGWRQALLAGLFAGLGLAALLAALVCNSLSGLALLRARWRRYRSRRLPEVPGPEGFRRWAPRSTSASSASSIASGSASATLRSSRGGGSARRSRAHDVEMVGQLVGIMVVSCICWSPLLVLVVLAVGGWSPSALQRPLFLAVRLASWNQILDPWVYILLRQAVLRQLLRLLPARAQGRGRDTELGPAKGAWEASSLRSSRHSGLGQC
Method: In order to determine the effectiveness of several of the compounds of the present invention ("test compounds") as prostaglandin E2 antagonists,a prostaglandin antagonism assay was conducted, as described below, to determine the ability of these compounds to inhibit prostaglandin E2 -induced contractions of segments of guinea pig ileum.
Male albino guinea pigs weighing 200 to 500 grams were sacrificed by cervical dislocation. The ilea were then quickly removed from the guinea pigs and placed in a modified Tyrode solution, a solution which is known to those skilled in the art, containing one-half of the usual amount of magnesium ions.
Segments of ileum about 2 cm long were then cut and mounted in a 10 mL tissue bath containing the modified Tyrode solution. The solution was maintained at 37° C. and aerated with a gaseous mixture of 95% oxygen and 5% carbon dioxide. Data for a control prostaglandin E2 dose response curve plotting concentration of prostaglandin E2 versus the intensity of contractions, detected isotonically, was then obtained by experimentally adjusting the dose of the prostaglandin E2 being injected into the tissue bath, in a manner known by those of skill in the art. […]
A dose ratio of EC50 doses was then calculated from the results of each test in a manner known by those of skill in the art. […]

[3] = test system: prostaglandins, isolated smooth muscle preparations; conditions: cited from earlier work
micturition reflex = conditions: urethane-anesthetized rats; cited from earlier work

SMILES	Writhing assay, number of mice out of nine or ten in which the test compound produced analgesia, I.G. ([1]; intragastric)	Writhing assay, number of mice out of nine or ten in which the test compound produced analgesia, S.C. ([1]; subcutaneous)	also measured
CCS(=O)(=O)CCC(=O)NNC(=O)N1Cc2ccccc2Oc2ccc(Cl)cc21 [8-chlorodibenz[b,f][1,41oxazepine-10(11H)-carboxylic acid, 2-[3(ethylsulfonyl)-1-oxopropyl]hydrazide, reference compound]	–	–	solubility (water solubility; comparison compound): 80 µg/mL (≈ 183 µM)
O=C(O)/C=C\C(=O)N1Cc2ccccc2Oc2ccc(Cl)cc21 [Example 2, 4-(8-chloro-10,11-dihydrodibenz[b,f]-oxazepin-10-yl)-4-oxo-2Z-butenoic acid]	1/10	4/10	–
CCCCOC(=O)/C=C\C(=O)N1Cc2ccccc2Oc2ccc(Cl)cc21 [Example 3, Butyl 4-(8-chloro-10,1! -dihydrodibenz[b,f]-oxazepin-10-yl)-4-oxo-2Z-butenoate]	6/10	4/10	–
CCCCOC(=O)/C=C/C(=O)N1Cc2ccccc2Oc2ccc(Cl)cc21 [Example 4, Butyl 4-(8-chloro-10,11-dihydrodibenz[b,f]-oxazepin-10-yl)-4-oxo-2E-butenoate]	6/10	6/10	–
CCCCNC(=O)/C=C\C(=O)N1Cc2ccccc2Oc2ccc(Cl)cc21 [Example 5]	4/10	6/10	–
COC(=O)/C=C/C(=O)N1Cc2ccccc2Oc2ccc(Cl)cc21 [Example 7, Methyl 4-(8-chloro-10,11-dihydrodibenz[b,f]-oxazepin-10-yl)-4-oxo-2E-butenoate]	3/10	6/9	–
CN(C)CCNC(=O)/C=C/C(=O)N1Cc2ccccc2Oc2ccc(Cl)cc21 [Example 8, 4-(8-chloro-10,11-dihydrodibenz[b,f]oxazepin-10-yl) -N-[2-(dimethylamino)ethyl]-4-oxo-2E-butenamide, monohydrochloride]	–	–	ED50 ([1]; po, intragastric, read-out: Writhing assay ED50 Dose, I.G.): 8.3 mg/kg; ED50 ([1]; sc, subcutaneous, read-out: Writhing assay ED50 Dose, S.C.): 8.3 mg/kg; Writhing Assay potency ranking (in words) ([1]; among compounds tested): most potent compound of the invention tested in this assay; Kb [2]: 1860 nM; water solubility (in words) (water solubility): highly water soluble; solubility (water solubility): > 80000 µg/mL
O=C(CCC(=O)N1Cc2ccccc2Oc2ccc(Cl)cc21)NCc1ccncc1 [Example 9, 8-chloro-γ-oxo-N-(4-pyridinylmethyl)dibenz[b,f]-[1,4]oxazepine-10(11)-butanamide]	6/10	–	Kb [2]: 2400 nM
CN(C)CCNC(=O)CCC(=O)N1Cc2ccccc2Oc2ccc(Cl)cc21 [Example 10, 8-chloro-N-[2-(dimethylamino)ethyl]-γ-oxodibenz [b,f][1,4]oxazepine-10(11)-butanamide]	6/9	–	–
O=C(Cc1ccccc1)NNC(=O)N1Cc2ccccc2Oc2ccc(Cl)cc21 [SC-18637]	–	–	inhibition of stimulant actions of prostaglandins (in words) [3]: inhibit the stimulant actions of prostaglandins on isolated smooth muscle preparations
CC(=O)NNC(=O)N1Cc2ccccc2Oc2ccc(Cl)cc21 [SC-19220]	–	–	bladder capacity (in words) (micturition reflex): increased the bladder capacity; voiding efficiency of micturition (in words) (micturition reflex): reduced the voiding efficiency of micturition; inhibition of stimulant actions of prostaglandins (in words) [3]: inhibit the stimulant actions of prostaglandins on isolated smooth muscle preparations
